Measurements: US6835382B2, “Ii peptide therapeutics to enhance antigen presentation” (University of Massachusetts, priority 1996, dated 2004)
Each block holds one molecule with its values, some of them ahead of it. Non-standard residues stand in square brackets, D forms with d. Cit = NC(=O)NCCC[C@H](N)C(=O)O; Orn = NCCC[C@H](N)C(=O)O

Tests used:
[1] = tested on: murine E^k MHC class II allele; test: simultaneous assay, E^k allele (CH27 APC, TPc9.1 T hybridoma, THMCC82-103 or PGCC81-104); type: cell-based
Description: (§1) Examples 1-4 (Tables 1-18) will be briefly considered in order to establish the concept of tolerance discussed above. These examples describe experimental results observed in the so-called “simultaneous” assay. In the simultaneous assay four principle components are cultured together for a 24 hour period. The components of this culture, which are added simultaneously, are: (a) an antigenic peptide characterized by the ability to bind specifically into the antigenic peptide binding groove of an MHC class II molecule, (b) mitomycin C-treated, MHC class II-positive antigen presenting cells (APC) bearing the MHC class II allele required for binding of the specific antigenic peptide, and presentation of the specific antigenic peptide to the antigenic peptide-specific T cell hybridoma, (c) an effector compound of the present invention, and (d) an MHC class II allele-restricted T cell hybridoma specific for the antigenic peptide and the MHC class II allele restricting its presentation. Following incubation of this primary culture, an aliquot of its supernatant is transferred into a second culture well for incubation with an interleukin-dependent lymphoblastoid cell line. The degree of stimulation of that second, indicator cell by the interleukins which had been released from the activated T cell hybridoma in the primary culture is measured by quantitating tritiated thymidine deoxyribose {[^3H]TdR} uptake into the DNA of the HT-2 indicator cells of that second culture.
(§2) In the “simultaneous assay” the four components of the assay are cultured together for a 24 h period. The components of this primary culture, added at the same time or simultaneously, are: (a) the antigenic peptide, (b) mitomycin C-treated, MHC class II-positive antigen presenting cells (APC) with the MHC class II allele required for binding of the specific antigenic peptide and its presentation to the antigenic peptide-specific T cell hybridoma, (c) an AE101 series effector peptide, and (d) MHC class II allele-restricted T cell hybridoma specific for the antigenic peptide and the MHC class II allele restricting its presentation. At the end of the incubation of this primary culture, an aliquot of its supernatant is transferred into a second culture well for incubation with an interleukin-dependent lymphoblastoid cell line. The degree of stimulation of that second, indicator cell by the interleukins which had been released from the activated T cell hybridoma in the primary culture is measured by quantitating tritiated thymidine deoxyribose {[^3H]TdR} uptake into the DNA of the HT-2 indicator cells of that second culture.
(§3) For these various assays, the following antigenic peptides were used: HEL11-25, hen egg lysozyme 11-25, AMKRHGLDNYRGYSL(A^d) (SEQ ID NO:5); HEL46-61, hen egg lysozyme 46-61, NTDGSTDYGILQINSR(Ak) (SEQ ID NO:6); HEL106-116, hen egg lysozyme 106-116, NAWVAWRNRCK (E^d) (SEQ ID NO:7); PGCC81-104, pigeon cytochrome c 81-104, […] (Ek) (SEQ ID NO:8), and THMCC82-103, tobacco hornworm moth cytochrome c 82-103, […] (Ek) (SEQ ID NO:9). AE101 series peptides were obtained from commercial sources. In general, the purity and composition of each peptide was confirmed by HPLC separation and mass spectrometry. The native protein antigens were HEL, hen egg lysozyme, and PGCC, pigeon cytochrome C. They were obtained from commercial sources.
(§4) For the experiments of these Examples, several T cell hybridomas, which are specific for certain antigenic peptides, were used. The TPc9.1 T hybridoma is specific for pigeon cytochrome C 81-104 peptide presented on the murine class II MHC allele E^k. The TPc9.1 hybridoma responds heteroclitically to tobacco hornworm moth cytochrome c 82-103 on E^k. The 3A9 T hybridoma is specific for hen egg lysozyme 46-61 on A^k. The 9.30.B2 hybridoma is specific for hen egg lysozyme 11-25 on A^d, and the G28.C9 hybridoma is specific for hen egg lysozyme 106-116 on E^d. […]

HLA-DR1 molecules [2] = test: release of biotin-labeled hMBP(90-102) from HLA-DR1 without unlabeled antigenic peptide (assay I); type: binding, human; conditions: for Relative Release: Table 36, fraction of o.d. of positive control (PBS only = 1.0; negative control = 0.0)
[3] = biological target: T1, murine E^d MHC class II allele (Mus musculus, UniProt P01904+P01915); test: simultaneous assay, E^d allele (A20 APC, G28.C9 T hybridoma, HEL106-116; HT-2 [3H]TdR readout); type: cell-based; parameters: The A20 and CH27 B cell lymphoma lines express H-2^d and H-2^k alleles, respectively; endogenous in cells; host or cells: A20 B cell lymphoma (mitomycin C-treated or paraformaldehyde-fixed)
T1 sequence (P01904 26-255): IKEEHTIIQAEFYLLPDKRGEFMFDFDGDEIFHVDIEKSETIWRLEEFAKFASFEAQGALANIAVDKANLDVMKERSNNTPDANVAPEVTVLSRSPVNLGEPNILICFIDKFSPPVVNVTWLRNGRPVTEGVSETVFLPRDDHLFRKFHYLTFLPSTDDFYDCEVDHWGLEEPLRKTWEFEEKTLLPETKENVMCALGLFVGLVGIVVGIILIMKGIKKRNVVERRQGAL
T1 sequence (P01915 27-264 limits assumed): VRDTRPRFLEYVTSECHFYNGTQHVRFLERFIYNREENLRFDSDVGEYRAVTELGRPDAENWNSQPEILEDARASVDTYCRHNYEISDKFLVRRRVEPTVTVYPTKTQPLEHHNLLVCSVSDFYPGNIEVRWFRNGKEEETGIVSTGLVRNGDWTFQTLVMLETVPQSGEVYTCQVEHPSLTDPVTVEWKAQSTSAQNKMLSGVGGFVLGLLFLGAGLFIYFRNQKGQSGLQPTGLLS
Description: as §1, §2, §3, §4

HLA-DR1 molecules [4] = test: release of biotin-labeled hMBP(90-102) from HLA-DR1 in the presence of unlabeled hMBP (assay II); type: binding, human
[5] = biological target: soluble HLA-DR1 (HLA-DR alpha truncated after Asn192 with a C-terminal nine amino acid HA epitope tail; HLA-DR1 beta truncated after Lys198), made in Baculovirus-infected insect cells (human); test: release ELISA: soluble HLA-DR1 tethered by 12CA5 and preloaded with biotin-hMBP(90-102); AE peptide 64 uM, 1 h 37 C, no unlabeled peptide; biotin still bound read by avidin-HRP (1.0 = PBS control, 0.0 = no DR1; low value = released)
[6] = Table 1, AE peptide 16 μM (second value), 0.075 μM THMCC82-103, supernatant 1:2
[7] = Table 1, AE peptide 64 μM (first value), 0.075 μM THMCC82-103, supernatant 1:2
[8] = Table 1, AE peptide 16 μM (second value), 0.4 μM HEL106-116, supernatant 1:4
[9] = Table 1, AE peptide 64 μM (first value), 0.4 μM HEL106-116, supernatant 1:4
[10] = Table 12, AE peptide 1 μM (fourth value), supernatant 1:4
[11] = Table 12, AE peptide 4 μM (third value), supernatant 1:4
[12] = Table 12, AE peptide 16 μM (second value), supernatant 1:4
[13] = Table 12, AE peptide 64 μM (first value), supernatant 1:4
[14] = Table 12, AE peptide 1 μM (fourth value), supernatant 1:2
[15] = Table 12, AE peptide 4 μM (third value), supernatant 1:2
[16] = Table 12, AE peptide 16 μM (second value), supernatant 1:2
[17] = Table 12, AE peptide 64 μM (first value), supernatant 1:2
[18] = Table 9, AE peptide 64 μM, supernatant 1:4, normalized by a factor of 5
[19] = Table 9, AE peptide 64 μM, supernatant 1:4
[20] = Table 5, AE peptide 64 μM, supernatant 1:4, normalized to E^d by a factor of 10
[21] = Table 5, AE peptide 64 μM, supernatant 1:4

Molecule: PKSAKPVSQMR [AE104]
Times Baseline Response, E^k [1, 6]: 1.1
Times Baseline Response, E^k [1, 7]: 0.8
Relative Release (HLA-DR1 molecules [2]; AE101 series compound 64 μM): 0.02
Times Baseline Response, E^d [3, 8]: 0.9
Times Baseline Response, E^d [3, 9]: 2.6

Molecule: unlabeled hMBP(90-102): human myelin basic protein (hMBP) peptide (90-102), antigenic peptide binding HLA-DR1, unlabeled (HLIRLFSRDAPGR) [reference compound]
release of biotin-labeled hMBP(90-102) (Relative Release) (HLA-DR1 molecules [4]; unlabeled hMBP(90-102) (250 μM) alone without AE101 series compounds): 0.81

Molecule: SAKPVSQMR [AE105]
Times Baseline Response, E^k [1, 6]: 0.8
Times Baseline Response, E^k [1, 7]: 0.7
Relative Release (HLA-DR1 molecules [2]; AE101 series compound 64 μM): 0.16
Times Baseline Response, E^d [3, 8]: 1.1
Times Baseline Response, E^d [3, 9]: 4.5

activity in simultaneous assay on E^d and E^k, in words ([3]; Tables 12 and 18): inactive
Molecule: Ac-kplkmrl-NH2 [AE171]
Times Baseline Response, E^k [1, 10]: 1.9
Times Baseline Response, E^k [1, 11]: 1.4
Times Baseline Response, E^k [1, 12]: 2.0
Times Baseline Response, E^k [1, 13]: 3.6
Times Baseline Response, E^d [3, 14]: 1.4
Times Baseline Response, E^d [3, 15]: 1.4
Times Baseline Response, E^d [3, 16]: 1.5
Times Baseline Response, E^d [3, 17]: 1.3

Molecule: Ac-YRMKLPKS-NH2 [AE112]
Times Baseline Response, E^k [1, 6]: 3.2
Times Baseline Response, E^k [1, 7]: 15.3
Times Baseline Response, E^d [3, 8]: 26.2
Times Baseline Response, E^d [3, 9]: 42.8

Molecule: YRMKLPKSAK [AE108]
Times Baseline Response, E^k [1, 6]: 0.9
Times Baseline Response, E^k [1, 7]: 1.2
Relative Release (HLA-DR1 molecules [2]; AE101 series compound 64 μM): 1.14
Relative Release, Without unlabeled hMBP(90-102), 1 μM (HLA-DR1 molecules [2]; Table 37, AE101 series compound 1 μM, no unlabeled hMBP(90-102)): 0.52
Relative Release, Without unlabeled hMBP(90-102), 64 μM (HLA-DR1 molecules [2]; Table 37, AE101 series compound 64 μM, no unlabeled hMBP(90-102)): 0.31
Relative Release, With unlabeled hMBP(90-102), 1 μM (HLA-DR1 molecules [4]; Table 37, AE101 series compound 1 μM, unlabeled hMBP(90-102) 250 μM): 0.00
Relative Release, With unlabeled hMBP(90-102), 64 μM (HLA-DR1 molecules [4]; Table 37, AE101 series compound 64 μM, unlabeled hMBP(90-102) 250 μM): 0.14
Times Baseline Response, E^d [3, 8]: 11.6
Times Baseline Response, E^d [3, 9]: 32.0

Molecule: Ac-LRMKLP E-NH2 [AE245]
Times Baseline Response, E^k [1, 18]: 2.8
Times Baseline Response, E^d [3, 19]: 0.9

Molecule: Ac-LRMKLP Q-NH2 [AE247]
Times Baseline Response, E^k [1, 18]: 10.9
Times Baseline Response, E^d [3, 19]: 4.5

Molecule: Ac-YRMKLPKSAA-NH2 [AE128]
Times Baseline Response, E^k ([1]; Table 10, AE peptide 64 μM, supernatant 1:2 (first value)): 51.9
Times Baseline Response, E^k ([1]; Table 10, AE peptide 64 μM, supernatant 1:4 (second value)): 58.6
Times Baseline Response, E^d ([3]; Table 10, AE peptide 16 μM (second value), supernatant 1:2): 29.5
Times Baseline Response, E^d ([3]; Table 10, AE peptide 64 μM (first value), supernatant 1:2): 33.0

Molecule: YRMKLPKSAKPVSQ [AE106]
Times Baseline Response, E^k [1, 6]: 0.9
Times Baseline Response, E^k [1, 7]: 2.0
release of hMBP(90-102) from HLA-DR1 (HLA-DR1 molecules [2]; AE peptide at 125 nM, additional experiments): completely release
Relative Release (HLA-DR1 molecules [2]; AE101 series compound 64 μM): −0.12
Times Baseline Response, E^d [3, 8]: 4.4
Times Baseline Response, E^d [3, 9]: 16.9

Molecule: Ac-LRM Q LPK-NH2 [AE217]
Times Baseline Response, E^k ([1]; Table 6, AE peptide 64 μM, supernatant 1:4, reduced by a factor of 5): 4.4
Times Baseline Response, E^d ([3]; Table 6, AE peptide 64 μM, supernatant 1:4): 4.0

Molecule: Ac-LRMKLP M-NH2 [AE250]
Times Baseline Response, E^k [1, 18]: 21.3
Times Baseline Response, E^d [3, 19]: 13.9

Molecule: Ac-LRMKLpk-NH2 [AE173]
Times Baseline Response, E^k [1, 10]: 2.1
Times Baseline Response, E^k [1, 11]: 4.3
Times Baseline Response, E^k [1, 12]: 25.0
Times Baseline Response, E^k [1, 13]: 51.3
Times Baseline Response, E^d [3, 14]: 2
Times Baseline Response, E^d [3, 15]: 10
Times Baseline Response, E^d [3, 16]: 92
Times Baseline Response, E^d [3, 17]: 123

Molecule: Ac-LR[Cit]KLPK-NH2 [AE196]
Times Baseline Response, E^k [1, 20]: 18.4
Times Baseline Response, E^d [3, 21]: 13.6

Molecule: Ac-LR F KLPK-NH2 [AE204]
Times Baseline Response, E^k [1, 20]: 31.8
Times Baseline Response, E^d [3, 21]: 14.0

Molecule: Ac-LRMKLP[Orn]-NH2 [AE240]
Times Baseline Response, E^k [1, 18]: 11.5
Times Baseline Response, E^d [3, 19]: 9.8

Molecule: KLPKSAKPVSQMR [AE103]
Times Baseline Response, E^k [1, 6]: 0.7, 0.7
Times Baseline Response, E^k [1, 7]: 0.7, 0.7
Relative Release (HLA-DR1 molecules [2]; AE101 series compound 64 μM): 0.01
Times Baseline Response, E^d [3, 8]: 1.3
Times Baseline Response, E^d [3, 9]: 3.4

Molecule: KLPKSAKPVSQMR [AE103]
Relative Release (fraction of positive control o.d.) [5]: 0.01

Molecule: SAKPVSQMR [AE105]
Fraction of biotin-hMBP still bound (fraction of positive control o.d.) [5]: 0.16

Molecule: PKSAKPVSQMR [AE104]
Relative Release (fraction of positive control o.d.) [5]: 0.02

Molecule: YRMKLPKSAKPVSQ [AE106]
Relative Release (fraction of positive control o.d.) [5]: -0.12
